Laboratory results reported in paper PMC11191095, “QSAR Reveals Decreased Lipophilicity of Polar Residues Determines the Selectivity of Antimicrobial Peptide Activity” (ACS Omega, 2024).
Where a SMILES comes first, the peptide text is derived from it.

Key:
Assay in all cases: microbe, parasite or virus in culture
A. baumannii AYE = type: cell-based, Acinetobacter baumannii; details: A. baumannii AYE (R)
How it was run: (§1)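 Peptides 128→2 μg/mL, 2-fold series; inoculum ~5 × 10^5 CFU/mL from overnight culture (OD600 0.01, mixed 1:1). MHB non-cation-adjusted for bacteria, RPMI 1640 + 2% glucose for fungi. 37 °C, 20 h, OD600. MIC50/MIC90 at 50%/90% inhibition; n ≥ 3.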

A. baumannii ATCC 17978 = type: cell-based, Acinetobacter baumannii; details: A. baumannii ATCC 17978 (S)
How it was run: as §1

P. aeruginosa NCTC 13437 = type: cell-based, Pseudomonas aeruginosa; details: P. aeruginosa NCTC 13437 (R)
How it was run: as §1

[1] = system: C. parapsilosis NCPF 3209; type: cell-based; details: C. parapsilosis NCPF 3209
How it was run: as §1

C. albicans NCPF 3281 = type: cell-based; details: C. albicans NCPF 3281
How it was run: as §1

C. glabrata NCPF 8018 = type: cell-based; details: C. glabrata NCPF 8018
How it was run: as §1

C. krusei NCPF 3876 = type: cell-based; details: C. krusei NCPF 3876
How it was run: as §1

C. tropicalis NCPF 8760 = type: cell-based; details: C. tropicalis NCPF 8760
How it was run: as §1

E. coli LEC001 = type: cell-based, Escherichia coli; details: E. coli LEC001 (R)
How it was run: as §1

E. coli NCTC 12923 = type: cell-based, Escherichia coli; details: E. coli NCTC 12923 (S)
How it was run: as §1

K. pneumoniae M6 = type: cell-based, Klebsiella pneumoniae; details: K. pneumoniae M6 (S)
How it was run: as §1

K. pneumoniae NCTC 13368 = type: cell-based, Klebsiella pneumoniae; details: K. pneumoniae NCTC 13368 (R)
How it was run: as §1

C. auris TDG 1912 = type: cell-based, Candida auris; details: C. auris TDG 1912
How it was run: as §1

S. aureus (MRSA) 1199B = type: cell-based, Staphylococcus aureus; details: S. aureus (MRSA) 1199B (R)
How it was run: as §1

S. aureus (MRSA) USA300 = type: cell-based, Staphylococcus aureus; details: S. aureus (MRSA) USA300 (R)
How it was run: as §1

[2] = system: S. aureus (MRSA) NCTC 13616; type: cell-based, Staphylococcus aureus; details: S. aureus (MRSA) NCTC 13616 (R)
How it was run: as §1

[3] = MHB, 37 °C, 20 h, OD600, min. three biological repeats
[4] = 50% growth inhibition, RPMI 1640 + 2% glucose, 37 °C, 20 h
[5] = 90% growth inhibition, RPMI 1640 + 2% glucose, 37 °C, 20 h
[6] = MHB, ~5×10^5 CFU/mL, 37 °C, 20 h, OD600, min. three biological repeats
[7] = 50% growth inhibition, RPMI 1640 + 2% glucose, 37 °C, 20 h, OD600
[8] = 90% growth inhibition, RPMI 1640 + 2% glucose, 37 °C, 20 h, OD600

CC[C@H](C)[C@H](NC(=O)CNC(=O)[C@@H](N)CCCNC(=N)N)C(=O)N[C@@H](CCCNC(=N)N)C(=O)NCC(=O)N[C@@H](Cc1ccc(O)cc1)C(=O)N[C@@H](CCCCN)C(=O)NCC(=O)NCC(=O)N[C@@H](Cc1ccc(O)cc1)C(=O)N[C@@H](CS)C(=O)N[C@H](C(=O)NCC(=O)N[C@@H](CCCNC(=N)N)C(=O)N[C@@H](Cc1ccccc1)C(=O)N[C@@H](CCCCN)C(=O)N[C@@H](CCC(N)=O)C(=O)N[C@H](C(=O)N[C@@H](CS)C(=O)N[C@@H](CCCCN)C(=O)N[C@@H](CS)C(=O)N[C@@H](Cc1ccc(O)cc1)C(=O)O)[C@@H](C)O)[C@@H](C)O [OmDefB] (H-RGIRGYKGGYCTGRFKQTCKCY-OH; N-terminus and C-terminus assumed)
> 128 µg/mL: Modal MIC (A. baumannii AYE; [3]) | Modal MIC (A. baumannii ATCC 17978; [3]) | Modal MIC (P. aeruginosa NCTC 13437; [3]) | Modal MIC50 [1, 4] | Modal MIC90 [1, 5] | Modal MIC50 (C. albicans NCPF 3281; [4]) | Modal MIC90 (C. albicans NCPF 3281; [5]) | Modal MIC50 (C. glabrata NCPF 8018; [4]) | Modal MIC90 (C. glabrata NCPF 8018; [5]) | Modal MIC50 (C. krusei NCPF 3876; [4]) | Modal MIC90 (C. krusei NCPF 3876; [5]) | Modal MIC50 (C. tropicalis NCPF 8760; [4]) | Modal MIC90 (C. tropicalis NCPF 8760; [5]) | Modal MIC (E. coli LEC001; [3]) | Modal MIC (E. coli NCTC 12923; [6]) | Modal MIC (K. pneumoniae M6; [3]) | Modal MIC (K. pneumoniae NCTC 13368; [3]) | Modal MIC50 (C. auris TDG 1912; [7]) | Modal MIC90 (C. auris TDG 1912; [8]) | Modal MIC (S. aureus (MRSA) 1199B; [3]) | Modal MIC (S. aureus (MRSA) USA300; [3]) | Modal MIC [2, 3]
> 49.9 µM: Modal MIC (A. baumannii AYE; shown in µM) | Modal MIC (A. baumannii ATCC 17978; shown in µM) | Modal MIC (P. aeruginosa NCTC 13437; shown in µM) | Modal MIC50 ([1]; shown in µM) | Modal MIC90 ([1]; shown in µM) | Modal MIC50 (C. albicans NCPF 3281; shown in µM) | Modal MIC90 (C. albicans NCPF 3281; shown in µM) | Modal MIC50 (C. glabrata NCPF 8018; shown in µM) | Modal MIC90 (C. glabrata NCPF 8018; shown in µM) | Modal MIC50 (C. krusei NCPF 3876; shown in µM) | Modal MIC90 (C. krusei NCPF 3876; shown in µM) | Modal MIC50 (C. tropicalis NCPF 8760; shown in µM) | Modal MIC90 (C. tropicalis NCPF 8760; shown in µM) | Modal MIC (E. coli LEC001; shown in µM) | Modal MIC (E. coli NCTC 12923; shown in µM) | Modal MIC (K. pneumoniae M6; shown in µM) | Modal MIC (K. pneumoniae NCTC 13368; shown in µM) | Modal MIC50 (C. auris TDG 1912; shown in µM) | Modal MIC90 (C. auris TDG 1912; shown in µM) | Modal MIC (S. aureus (MRSA) 1199B; shown in µM) | Modal MIC (S. aureus (MRSA) USA300; shown in µM) | Modal MIC ([2]; shown in µM)

CC[C@H](C)[C@H](NC(=O)[C@@H](N)Cc1c[nH]c2ccccc12)C(=O)N[C@@H](CCCCN)C(=O)N[C@@H](CO)C(=O)N[C@H](C(=O)N[C@@H](C)C(=O)N[C@@H](CCCCN)C(=O)N[C@@H](CCCCN)C(N)=O)[C@@H](C)O [Opis8a] (H-WIKSTAKK-NH2)
> 133.2 µM: Modal MIC (A. baumannii AYE; shown in µM) | Modal MIC (A. baumannii ATCC 17978; shown in µM) | Modal MIC (P. aeruginosa NCTC 13437; shown in µM) | Modal MIC50 ([1]; shown in µM) | Modal MIC90 ([1]; shown in µM) | Modal MIC50 (C. albicans NCPF 3281; shown in µM) | Modal MIC90 (C. albicans NCPF 3281; shown in µM) | Modal MIC50 (C. glabrata NCPF 8018; shown in µM) | Modal MIC90 (C. glabrata NCPF 8018; shown in µM) | Modal MIC50 (C. krusei NCPF 3876; shown in µM) | Modal MIC90 (C. krusei NCPF 3876; shown in µM) | Modal MIC50 (C. tropicalis NCPF 8760; shown in µM) | Modal MIC90 (C. tropicalis NCPF 8760; shown in µM) | Modal MIC (E. coli LEC001; shown in µM) | Modal MIC (E. coli NCTC 12923; shown in µM) | Modal MIC (K. pneumoniae M6; shown in µM) | Modal MIC (K. pneumoniae NCTC 13368; shown in µM) | Modal MIC50 (C. auris TDG 1912; shown in µM) | Modal MIC90 (C. auris TDG 1912; shown in µM) | Modal MIC (S. aureus (MRSA) 1199B; shown in µM) | Modal MIC (S. aureus (MRSA) USA300; shown in µM) | Modal MIC ([2]; shown in µM)
> 128 µg/mL: Modal MIC (A. baumannii AYE; [3]) | Modal MIC (A. baumannii ATCC 17978; [3]) | Modal MIC (P. aeruginosa NCTC 13437; [3]) | Modal MIC50 [1, 4] | Modal MIC90 [1, 5] | Modal MIC50 (C. albicans NCPF 3281; [4]) | Modal MIC90 (C. albicans NCPF 3281; [5]) | Modal MIC50 (C. glabrata NCPF 8018; [4]) | Modal MIC90 (C. glabrata NCPF 8018; [5]) | Modal MIC50 (C. krusei NCPF 3876; [4]) | Modal MIC90 (C. krusei NCPF 3876; [5]) | Modal MIC50 (C. tropicalis NCPF 8760; [4]) | Modal MIC90 (C. tropicalis NCPF 8760; [5]) | Modal MIC (E. coli LEC001; [3]) | Modal MIC (E. coli NCTC 12923; [6]) | Modal MIC (K. pneumoniae M6; [3]) | Modal MIC (K. pneumoniae NCTC 13368; [3]) | Modal MIC50 (C. auris TDG 1912; [7]) | Modal MIC90 (C. auris TDG 1912; [8]) | Modal MIC (S. aureus (MRSA) 1199B; [3]) | Modal MIC (S. aureus (MRSA) USA300; [3]) | Modal MIC [2, 3]

CC[C@H](C)[C@H](N)C(=O)N[C@@H](CCCNC(=N)N)C(=O)NCC(=O)N[C@@H](Cc1ccc(O)cc1)C(=O)N[C@@H](CCCCN)C(=O)NCC(=O)NCC(=O)N[C@@H](Cc1ccc(O)cc1)C(=O)N[C@@H](CS)C(=O)N[C@@H](CCCCN)C(N)=O [Os(3-12)a] (H-IRGYKGGYCK-NH2)
> 128 µg/mL: Modal MIC (A. baumannii AYE; [3]) | Modal MIC (A. baumannii ATCC 17978; [3]) | Modal MIC (P. aeruginosa NCTC 13437; [3]) | Modal MIC50 [1, 4] | Modal MIC90 [1, 5] | Modal MIC50 (C. albicans NCPF 3281; [4]) | Modal MIC90 (C. albicans NCPF 3281; [5]) | Modal MIC50 (C. glabrata NCPF 8018; [4]) | Modal MIC90 (C. glabrata NCPF 8018; [5]) | Modal MIC50 (C. krusei NCPF 3876; [4]) | Modal MIC90 (C. krusei NCPF 3876; [5]) | Modal MIC50 (C. tropicalis NCPF 8760; [4]) | Modal MIC90 (C. tropicalis NCPF 8760; [5]) | Modal MIC (E. coli LEC001; [3]) | Modal MIC (E. coli NCTC 12923; [6]) | Modal MIC (K. pneumoniae M6; [3]) | Modal MIC (K. pneumoniae NCTC 13368; [3]) | Modal MIC50 (C. auris TDG 1912; [7]) | Modal MIC90 (C. auris TDG 1912; [8]) | Modal MIC (S. aureus (MRSA) 1199B; [3]) | Modal MIC (S. aureus (MRSA) USA300; [3]) | Modal MIC [2, 3]
> 112 µM: Modal MIC (A. baumannii AYE; shown in µM) | Modal MIC (A. baumannii ATCC 17978; shown in µM) | Modal MIC (P. aeruginosa NCTC 13437; shown in µM) | Modal MIC50 ([1]; shown in µM) | Modal MIC90 ([1]; shown in µM) | Modal MIC50 (C. albicans NCPF 3281; shown in µM) | Modal MIC90 (C. albicans NCPF 3281; shown in µM) | Modal MIC50 (C. glabrata NCPF 8018; shown in µM) | Modal MIC90 (C. glabrata NCPF 8018; shown in µM) | Modal MIC50 (C. krusei NCPF 3876; shown in µM) | Modal MIC90 (C. krusei NCPF 3876; shown in µM) | Modal MIC50 (C. tropicalis NCPF 8760; shown in µM) | Modal MIC90 (C. tropicalis NCPF 8760; shown in µM) | Modal MIC (E. coli LEC001; shown in µM) | Modal MIC (E. coli NCTC 12923; shown in µM) | Modal MIC (K. pneumoniae M6; shown in µM) | Modal MIC (K. pneumoniae NCTC 13368; shown in µM) | Modal MIC50 (C. auris TDG 1912; shown in µM) | Modal MIC90 (C. auris TDG 1912; shown in µM) | Modal MIC (S. aureus (MRSA) 1199B; shown in µM) | Modal MIC (S. aureus (MRSA) USA300; shown in µM) | Modal MIC ([2]; shown in µM)
